# Laboratory results: patent US7776844B2, “N-(phosphonoalkyl)-amino acids, derivatives thereof and compositions and methods of use” (priority 2006, dated 2010)
# Where two headings read alike, the source gives them in different places.
# Assays:
# [1] = system: chronic plaque psoriasis; experiment: Topical treatment of chronic plaque psoriasis lesion, clinical evaluation; assay type: in vivo; settings: Homo sapiens, read-out: improvement in contrast to untreated or vehicle control, clinical evaluation
# Protocol: (§1) The present invention will now be described in more detail with reference to the following non-limiting examples. In the initial tests for comparative studies, a control vehicle was always included. It was discovered that all the vehicle controls gave the same results as that of the untreated skin sites; no detectable effects of the controls have been found as judged by clinical evaluation.
# (§2) For subjective disorders such as pain, itch or the like, the therapeutic effects were evaluated or judged by the subjects or patients; for example, if the pain or itch had disappeared within hours or days. For other detectable symptoms or syndromes, the therapeutic effects or improvements were evaluated or judged by medical professionals.
# (§3) A subject had chronic plaque psoriasis with erythema, moderately thick and silvery scales. The subject topically applied twice daily the above white cream containing 5% N-(phosphonomethyl)-glycine ethyl ester to one psoriatic lesion for two weeks. At the end of two weeks, the erythema and silvery scales improved substantially, and the treated skin had 50% improvement in contrast to the untreated or vehicle control as judged by clinical evaluation.
# as §3, with “10% N-(phosphonomethyl)-L-proline” for “5% N-(phosphonomethyl)-glycine ethyl ester”, “improved very” for “improved”, “75%” for “50%”
# as §3, with “N-(phosphonomethyl)-glycine propyl” for “N-(phosphonomethyl)-glycine ethyl”, “improved very” for “improved”, “had 75%” for “had 50%”
# as §3, with “N-(phosphonomethyl)-glycine isopropyl” for “N-(phosphonomethyl)-glycine ethyl”, “for a week.” for “for two weeks.”, “of one week,” for “of two weeks,”
# as §3, with “8% N-(phosphonomethyl)-glycinamide” for “5% N-(phosphonomethyl)-glycine ethyl ester”, “three” for “two”, “disappeared almost completely,” for “improved substantially,”, “90%” for “50%”
# as §3, with “N-(phosphonomethyl)-L-tyrosine” for “N-(phosphonomethyl)-glycine”, “noticeably” for “substantially,”, “25%” for “50%”
# A subject had chronic plaque psoriasis with erythema, moderately thick and silvery scales. The subject topically applied twice daily the above white cream containing 10% N-(phosphonomethyl)-D-4-hydroxyphenylglycine to one psoriatic lesion for two weeks. […]
# [2] = system: X-linked ichthyosis with severe dry skin; experiment: Topical treatment of X-linked ichthyosis / severe dry skin, clinical evaluation; assay type: in vivo; settings: Homo sapiens, read-out: improvement in contrast to untreated or vehicle control, clinical evaluation
# From the text: For example, human subjects having severe dry skin or ichthyosis, topically applied 1%-5% N-(phosphonomethyl)-glycine creams to lesions for 2 to 3 weeks. After 2 to 3 weeks of topical application, the thick and scaly skin disappeared and the skin became smooth and normal in appearance. Clinical evaluation was judged to be 90% to 100% improvement compared to the untreated condition or when using a vehicle control.
# as §1, §2
# N-(phosphonomethyl)-glycine (5 g) was suspended in water (30 ml) and propylene glycol (10 ml), and concentrated ammonium hydroxide (2 ml) was added with stirring. The suspension became a clear solution, and was mixed with hydrophilic ointment (oil-in-water emulsion, 53 g). The white cream thus formulated had pH 3.8 and contained 5% N-(phosphonomethyl)-glycine. A subject who had X-linked ichthyosis with severe dry skin, having thick and rough skin with adherent scales, topically applied the above 5% N-(phosphonomethyl)-glycine cream to an involved skin site twice daily for two weeks. After one week of topical application, the adherent scales disappeared, and the skin became smooth and had 50% improvement in contrast to the untreated or vehicle control as judged by clinical evaluation. After two weeks of topical application, the treated skin became normal in appearance, and had 100% improvement in contrast to the untreated or vehicle control as judged by clinical evaluation.
# A subject who had X-linked ichthyosis with severe dry skin, having thick and rough skin with adherent scales, topically applied the above 5% N-(phosphonomethyl)imino-diacetic acid cream to an involved skin site twice daily for two weeks. After one week of topical application, most adherent scales disappeared and the skin had 50% improvement in contrast to the untreated or vehicle control as judged by clinical evaluation. After two weeks of topical application, the scales disappeared completely and the treated skin became smooth, and had 90% improvement in contrast to the untreated or vehicle control as judged by clinical evaluation.
# A subject who had X-linked ichthyosis with severe dry skin, having thick and rough skin with adherent scales, topically applied the above 5% N-(phosphonomethyl)-L-tyrosine cream to an involved skin site twice daily for 12 days. After 12 days of topical application, most adherent scales disappeared and the skin became smooth, and had 75% improvement in contrast to the untreated or vehicle control as judged by clinical evaluation.
# A subject who had X-linked ichthyosis having thick and rough skin with adherent scales, topically applied the 5% N-(phosphonomethyl)-DL-asparagine cream to an involved skin site twice daily for three weeks. After one week of topical application, most adherent scales disappeared and the treated site appeared smooth. The skin had 75% improvement in contrast to the untreated or vehicle control as judged by clinical evaluation. After three weeks of topical application, the scales disappeared completely and the treated site felt smooth and normal in appearance. The skin had 100% improvement in contrast to the untreated or vehicle control as judged by clinical evaluation. […]
# [3] = system: itchy eczema; experiment: Topical relief of itch in itchy eczema, judged by subject; assay type: in vivo, human; settings: for therapeutic evaluation, effective for immediate relief of itch: single topical application
# Protocol: as §1, §2
# A subject, having itchy eczema on their right thigh, topically applied the above 8% N-(phosphonomethyl)-L-proline ethyl ester cream. […] Therapeutic evaluation was judged to be 100% effective in contrast to the untreated or vehicle control for immediate relief of itch.
# A subject, having itchy eczema on their left leg, topically applied 7% N-(phosphonomethyl)-creatine cream prepared according to Example 17. […] Therapeutic evaluation was judged to be 100% effective in contrast to the untreated or vehicle control for immediate relief of itch.
# A subject, having itchy eczema on their left thigh, topically applied the above 10% N-(phosphonomethyl)-glutamine. […] Therapeutic evaluation was judged to be 100% effective in contrast to the untreated or vehicle control for immediate relief of itch.
# [4] = system: hyperpigmented dark skin; experiment: Topical skin lightening of hyperpigmented dark skin, clinical evaluation; assay type: in vivo, human
# Protocol: as §1, §2
# A subject who had hyperpigmented dark skin, topically applied 5% N-(phosphonomethyl)-DL-asparagine cream prepared according to Example 7 to an involved skin site twice daily for four weeks. […] The treated site was 25% lighter in skin color in contrast to the untreated or vehicle control as judged by clinical evaluation. After four weeks of topical application, the treated site had substantial reduction in skin pigmentation. The treated site was 50% lighter in contrast to the untreated or vehicle control in skin color as judged by clinical evaluation.
# A subject who had hyperpigmented dark skin, topically applied the above 5% N-(phosphonomethyl)-DL-asparagine solution to an involved skin site once every other day with occlusion for ten days. […] The treated site was 25% lighter in skin color as judged by clinical evaluation. After ten days of topical application, the treated site had substantial reduction in skin pigmentation. The treated site was 50% lighter in skin color in contrast to the untreated or vehicle control as judged by clinical evaluation.
# (§4) A subject who had hyperpigmented dark skin, topically applied the above 5% N-(phosphonomethyl)-creatine solution to an involved skin site once every other day with occlusion for two weeks. […] The treated site was 25% lighter in skin color in contrast to the untreated or vehicle control as judged by clinical evaluation. After two weeks of topical application, the treated site had very substantial reduction in skin pigmentation. The treated site was 75% lighter in skin color in contrast to the untreated or vehicle control as judged by clinical evaluation.
# as §4, with “N-(phosphonomethyl)-glycinamide” for “N-(phosphonomethyl)-creatine”, “had” for “had very”, “50%” for “75%”
# A subject who had hyperpigmented dark skin, topically applied the above 5% N-(phosphonomethyl)-L-glutamine solution to an involved skin site once every other day with occlusion for two weeks. After two weeks of topical application, the treated site had substantial reduction in skin pigmentation. The treated site had 50% lighter in skin color in contrast to the untreated or vehicle control as judged by clinical evaluation.
# [5] = 336 h, 5% cream twice daily, end of two weeks
# [6] = 168 h, 5% cream twice daily, after one week
# [7] = 5% solution once every other day with occlusion, after two weeks
# [8] = 5% solution once every other day with occlusion, after seven days
compound,measurement,setting,value
CCOC(=O)[C@H](Cc1ccc(O)cc1)NCP(=O)(O)O [N-(phosphonomethyl)-L-tyrosine ethyl ester],inhibition in vivo at 5 %,[1]; [5],25%
same,inhibition in vivo at 5 %,[2]; [6],25%
CCOC(=O)[C@@H]1CCCN1CP(=O)(O)O [N-(phosphonomethyl)-L-proline ethyl ester],time the treated skin did not itch after application,[3]; 8% cream,8 h
same,time until itch disappeared after topical application,[3]; 8% cream,within a few minutes
same,"therapeutic evaluation, effective for immediate relief of itch",[3]; 8% cream,100%
O=C(O)[C@H](Cc1ccc(O)cc1)NCP(=O)(O)O [N-(phosphonomethyl)-L-tyrosine],inhibition in vivo at 5 %,"[2]; 288 h, 5% cream twice daily, after 12 days",75%
CCCOC(=O)CNCP(=O)(O)O [N-(phosphonomethyl)-glycine propyl ester],inhibition in vivo at 5 %,[1]; 336 h,75%
O=P(O)(O)CNCCc1ccc(O)cc1 [N-(phosphonomethyl)-tyramine],inhibition in vivo at 5 %,[1]; [5],50%
same,inhibition in vivo at 5 %,"[2]; 168 h, 5% solution once every other day under occlusion, after one week",75%
CC(C)OC(=O)CNCP(=O)(O)O [N-(phosphonomethyl)-glycine isopropyl ester],inhibition in vivo at 5 %,[1]; 168 h,50%
O=C(O)[C@@H]1CCCN1CP(=O)(O)O [N-(phosphonomethyl)-L-proline],inhibition in vivo at 10 %,[1]; 336 h,75%
NC(=O)CC[C@H](NCP(=O)(O)O)C(=O)O [N-(phosphonomethyl)-L-glutamine],"treated site lighter in skin color, clinical evaluation",[4]; [7],50%
same,time the treated skin did not itch after application,[3]; 10% cream,8 h
same,time until itch disappeared after topical application,[3]; 10% cream,within a few minutes
same,"therapeutic evaluation, effective for immediate relief of itch",[3]; 10% cream,100%
same,inhibition in vivo at 5 %,"[2]; 336 h, 5% solution once every other day (occlusion not stated), after two weeks",75%
same,inhibition in vivo at 5 %,"[2]; 504 h, 5% solution once every other day (occlusion not stated), after three weeks",100%
O=C(O)[C@H](NCP(=O)(O)O)c1ccc(O)cc1 [N-(phosphonomethyl)-D-4-hydroxyphenylglycine],inhibition in vivo at 10 %,"[1]; 336 h, 10% cream twice daily, end of two weeks",70%
CN(CC(=O)O)C(=N)NCP(=O)(O)O [N-(phosphonomethyl)-creatine],"treated site lighter in skin color, clinical evaluation",[4]; [8],25%
same,"treated site lighter in skin color, clinical evaluation",[4]; [7],75%
same,time the treated skin did not itch after application,[3]; 7% cream,8 h
same,time until itch disappeared after topical application,[3]; 7% cream,within a few minutes
same,"therapeutic evaluation, effective for immediate relief of itch",[3]; 7% cream,100%
same,inhibition in vivo at 5 %,[1]; 336 h,50%
same,inhibition in vivo at 5 %,[2]; 240 h,50%
same,inhibition in vivo at 5 %,[2]; 336 h,100%
O=C(O)CN(CC(=O)O)CP(=O)(O)O [N-(phosphonomethyl)imino-diacetic acid],inhibition in vivo at 5 %,[2]; 168 h,50%
same,inhibition in vivo at 5 %,[2]; 336 h,90%
O=C(O)CC[C@H](NCP(=O)(O)O)C(=O)O [N-(phosphonomethyl)-L-glutamic acid],inhibition in vivo at 8 %,"[1]; 336 h, 8% cream twice daily, end of two weeks",50%
CCOC(=O)CNCP(=O)(O)O [N-(phosphonomethyl)-glycine ethyl ester],inhibition in vivo at 5 %,[1]; 336 h,50%
NC(=O)CC(NCP(=O)(O)O)C(=O)O (racemic) [N-(phosphonomethyl)-DL-asparagine],"treated site lighter in skin color, clinical evaluation","[4]; 5% cream twice daily, after four weeks",50%
same,"treated site lighter in skin color, clinical evaluation","[4]; 5% cream twice daily, after two weeks",25%
same,"treated site lighter in skin color, clinical evaluation",[4]; [8],25%
same,"treated site lighter in skin color, clinical evaluation","[4]; 5% solution once every other day with occlusion, after ten days",50%
same,inhibition in vivo at 5 %,[2]; 168 h,75%
same,inhibition in vivo at 5 %,[2]; 504 h,100%
O=C(O)CNCP(=O)(O)O [N-(phosphonomethyl)-glycine],inhibition in vivo at 5 %,[2]; [6],50%
same,inhibition in vivo at 5 %,"[2]; 336 h, 5% cream twice daily, after two weeks",100%
NCC(=O)NCP(=O)(O)O [N-(phosphonomethyl)-glycinamide],"treated site lighter in skin color, clinical evaluation",[4]; [8],25%
same,"treated site lighter in skin color, clinical evaluation",[4]; [7],50%
same,inhibition in vivo at 8 %,[1]; 504 h,90%
same,inhibition in vivo at 5 %,[2]; 168 h,75%
same,inhibition in vivo at 5 %,[2]; 504 h,100%
